Source: PubChem BioAssay (NCI)
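GI50 is the concentration that inhibits growth by half. TGI marks complete inhibition of growth.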

Legend:
Assay in all cases: DTP human tumour cell line panel, 384-well format
K-562 leukemia = tested on: K-562 leukemia
UACC-62 melanoma = tested on: UACC-62 melanoma
COLO 205 colon = tested on: COLO 205 colon
SF-268 CNS = tested on: SF-268 CNS
BT-549 breast = tested on: BT-549 breast
A498 renal = tested on: A498 renal
OVCAR-8 ovarian = tested on: OVCAR-8 ovarian
OVCAR-3 ovarian = tested on: OVCAR-3 ovarian
U251 glioblastoma = tested on: U251 glioblastoma
OVCAR-4 ovarian = tested on: OVCAR-4 ovarian
HCC-2998 colon = tested on: HCC-2998 colon
NCI-H522 lung = tested on: NCI-H522 lung
UACC-257 melanoma = tested on: UACC-257 melanoma
NCI-H23 lung = tested on: NCI-H23 lung
M14 melanoma = tested on: M14 melanoma
SNB-19 CNS = tested on: SNB-19 CNS
SR leukemia = tested on: SR leukemia
NCI/ADR-RES ovarian = tested on: NCI/ADR-RES ovarian
MDA-MB-468 breast = tested on: MDA-MB-468 breast
MCF7 breast = tested on: MCF7 breast
HS 578T breast = tested on: HS 578T breast
MALME-3M melanoma = tested on: MALME-3M melanoma
SK-OV-3 ovarian = tested on: SK-OV-3 ovarian
KM12 colon = tested on: KM12 colon
HOP-62 NSCLC = tested on: HOP-62 NSCLC
OVCAR-5 ovarian = tested on: OVCAR-5 ovarian
RPMI-8226 leukemia = tested on: RPMI-8226 leukemia
SK-MEL-2 melanoma = tested on: SK-MEL-2 melanoma
IGROV1 ovarian = tested on: IGROV1 ovarian
UO-31 renal = tested on: UO-31 renal
CCRF-CEM leukemia = tested on: CCRF-CEM leukemia
MOLT-4 leukemia = tested on: MOLT-4 leukemia
EKVX NSCLC = tested on: EKVX NSCLC
SW-620 colon = tested on: SW-620 colon
MDA-MB-435 melanoma = tested on: MDA-MB-435 melanoma
SK-MEL-5 melanoma = tested on: SK-MEL-5 melanoma
786-0 renal = tested on: 786-0 renal
HOP-92 NSCLC = tested on: HOP-92 NSCLC
RXF 393 renal = tested on: RXF 393 renal
HCT-116 colon = tested on: HCT-116 colon
SF-295 CNS = tested on: SF-295 CNS
SNB-75 CNS = tested on: SNB-75 CNS
DU-145 prostate = tested on: DU-145 prostate
NCI-H322M lung = tested on: NCI-H322M lung
PC-3 prostate = tested on: PC-3 prostate
MDA-MB-231 breast = tested on: MDA-MB-231 breast
HL-60(TB) leukemia = tested on: HL-60(TB) leukemia

O=c1[nH]nc2c3c(cccc13)NC(CN1Cc3ccccc3C1)=N2
GI50 (K-562 leukemia): 7.51 µM
TGI (K-562 leukemia): > 100 µM
GI50 (UACC-62 melanoma): 7.14 µM
TGI (UACC-62 melanoma): > 100 µM
GI50 (COLO 205 colon): 5.51 µM
TGI (COLO 205 colon): > 56.2 µM
GI50 (SF-268 CNS): 4.68 µM
TGI (SF-268 CNS): 37.2 µM
GI50 (BT-549 breast): 6.22 µM
TGI (BT-549 breast): 39.7 µM
GI50 (A498 renal): 3.21 µM
TGI (A498 renal): 12.4 µM
GI50 (OVCAR-8 ovarian): 5.38 µM
TGI (OVCAR-8 ovarian): > 100 µM
GI50 (OVCAR-3 ovarian): 3.75 µM
TGI (OVCAR-3 ovarian): > 88.3 µM
GI50 (U251 glioblastoma): 7.61 µM
TGI (U251 glioblastoma): > 100 µM
GI50 (OVCAR-4 ovarian): 2.14 µM
TGI (OVCAR-4 ovarian): 12 µM
GI50 (HCC-2998 colon): 3.34 µM
TGI (HCC-2998 colon): 17.9 µM
GI50 (NCI-H522 lung): 2.49 µM
TGI (NCI-H522 lung): 7.83 µM
GI50 (UACC-257 melanoma): > 100 µM
TGI (UACC-257 melanoma): > 100 µM
GI50 (NCI-H23 lung): 2.27 µM
TGI (NCI-H23 lung): 15.3 µM
GI50 (M14 melanoma): 6.09 µM
TGI (M14 melanoma): > 100 µM
GI50 (SNB-19 CNS): 48 µM
TGI (SNB-19 CNS): > 100 µM
GI50 (SR leukemia): 2.36 µM
TGI (SR leukemia): 8.2 µM
GI50 (NCI/ADR-RES ovarian): 9.41 µM
TGI (NCI/ADR-RES ovarian): > 100 µM
GI50 (MDA-MB-468 breast): 2.22 µM
TGI (MDA-MB-468 breast): 9.99 µM
GI50 (MCF7 breast): 7.24 µM
TGI (MCF7 breast): > 100 µM
GI50 (HS 578T breast): 5.78 µM
TGI (HS 578T breast): > 100 µM
GI50 (MALME-3M melanoma): 6 µM
TGI (MALME-3M melanoma): > 100 µM
GI50 (SK-OV-3 ovarian): 3.49 µM
TGI (SK-OV-3 ovarian): > 62.2 µM
GI50 (KM12 colon): 6.04 µM
TGI (KM12 colon): > 62.4 µM
GI50 (HOP-62 NSCLC): 4.06 µM
TGI (HOP-62 NSCLC): > 100 µM
GI50 (OVCAR-5 ovarian): 3.89 µM
TGI (OVCAR-5 ovarian): 22.6 µM
GI50 (RPMI-8226 leukemia): 13.8 µM
TGI (RPMI-8226 leukemia): > 100 µM
GI50 (SK-MEL-2 melanoma): > 87.1 µM
TGI (SK-MEL-2 melanoma): > 100 µM
GI50 (IGROV1 ovarian): 3.55 µM
TGI (IGROV1 ovarian): 70.6 µM
GI50 (UO-31 renal): 11.4 µM
TGI (UO-31 renal): > 100 µM
GI50 (CCRF-CEM leukemia): 3.91 µM
TGI (CCRF-CEM leukemia): 15.2 µM
GI50 (MOLT-4 leukemia): 2.5 µM
TGI (MOLT-4 leukemia): 7.73 µM
GI50 (EKVX NSCLC): 3.1 µM
TGI (EKVX NSCLC): > 100 µM
GI50 (SW-620 colon): 8.37 µM
TGI (SW-620 colon): > 100 µM
GI50 (MDA-MB-435 melanoma): 3.74 µM
TGI (MDA-MB-435 melanoma): 15.6 µM
GI50 (SK-MEL-5 melanoma): 3.42 µM
TGI (SK-MEL-5 melanoma): > 56.2 µM
GI50 ([…]-0 renal): 5.12 µM
TGI (786-0 renal): > 67.4 µM
GI50 (HOP-92 NSCLC): 2.5 µM
TGI (HOP-92 NSCLC): 16.9 µM
GI50 (RXF 393 renal): 2.26 µM
TGI (RXF 393 renal): 7.28 µM
GI50 (HCT-116 colon): 8.67 µM
TGI (HCT-116 colon): > 100 µM
GI50 (SF-295 CNS): 10.7 µM
TGI (SF-295 CNS): > 100 µM
GI50 (SNB-75 CNS): 2.32 µM
TGI (SNB-75 CNS): 18.9 µM
GI50 (DU-145 prostate): 2.96 µM
TGI (DU-145 prostate): 24.1 µM
GI50 (NCI-H322M lung): 5.1 µM
TGI (NCI-H322M lung): > 45.7 µM
GI50 (PC-3 prostate): 4.32 µM
TGI (PC-3 prostate): 57.5 µM
GI50 (MDA-MB-231 breast): 2.81 µM
TGI (MDA-MB-231 breast): 14.5 µM
GI50 (HL-60(TB) leukemia): 12.9 µM
TGI (HL-60(TB) leukemia): > 100 µM
